Laboratory results reported in patent US6632832B1 (Dabur Research Foundation, priority 2002, dated 2003).
≈ marks a conversion by molar mass, not a printed value.

What was measured:
Cyclooxygenase 2 enzyme = assay: COX2 activity by PGE2 quantitation in MiaPaCa2 cells; type: cell-based, human
Method: 1×10^6 human pancreatic cancer cells (MiaPaCa2) were plated in 6 well plates in RPMI containing 10% FCS. The cells were incubated for a period of 24 hours at 37° C. in 5% CO2. The medium was changed to DMEM without serum. […] All experiments were carried out in duplicates. […] The medium was aspirated to remove Bisindolemaleimide, and the cells were washed twice with PBS. […] The cells were incubated at 37° C. for one hour. Indomethacin at a concentration of 10 ug/ml was added to the wells to block the COX enzyme. […] The cells were lysed (2.5% dodecyltrimethylammonium) and incubated for 10 minutes at room temperature. The cell lysates were transferred to microtitre plate coated with goat anti mouse Ig coated plate. 50 microliter of PGE2 standards ranging from 2.5 to 320 pg/ml were added to the microtitre plate in duplicates. 50 microliter of mouse anti PGE2 and 50 microliter of PGE2 conjugated peroxidase was added to the wells. The plate was covered and incubated at room temperature for one hour on a microtitre plate shaker. The wells were aspirated and washed 4 times with suitable was buffer. 150 microlire of enzyme substrate was added to all the wells. […] The OD was read at 450 nm.
The levels of secreted and intracellular PGE2 were quantitated in cells treated with or without bisindolemaleimide.

[1] = system: EGF dependent proliferation in human pancreatic cancer cells (MiaPaCa2); assay: EGF dependent proliferation, percent viable cells by MTT in sera free conditions; type: cell-based; design: dose or concentration left out as unconfirmed; settings: Carvedilol for 16 hours, then varying EGF for 48 hours
Method: (§1) Briefly, 10000 human pancreatic cancer cells (MiaPaCa2) were seeded per well in a 96-well culture plate in DMEM containing 5% FCS. All experiments were carried out in triplicates at 37° C. in a CO2 incubator. The cells were incubated for a period of 12 hours, washed once with PBS and the medium was changed to DMEM without Fetal calf serum (FCS). […] The untreated control cells were treated with 1% DMSO in DMEM. The cells were washed with PBS and incubated with varying concentrations of EGF in DMEM without FCS for a period of 48 hours. The percent viable cells in absence and presence of Carvedilol was determined in an MTT assay in vitro.

[2] = system: Human Colon, Ovary, melanoma, Leukemia, Glioblastoma, Prostate, oral and Lung tumor cell lines; assay: MTT cytotoxicity assay, summary over the tumor cell line panel; type: cell-based
Method: (§2) After 72 hours, the assay was terminated and percent cyotoxicities calculated.

[3] = system: B16F10 melanoma tumor xenografts; assay: B16F10 melanoma xenograft model in nude mice; type: in vivo, Balb/c athymic mice; settings: for tumor inhibition based on tumor volumes compared with untreated controls: oral gavage once a day, Day 19
Method: Melanoma tumor xenografts were initiated in Balb/c athymic mice by subcutaneous inoculation of a single cell suspension of B16F10 cells (10×10^6 cells/100 μL). The tumor-bearing mice were divided into three groups of 4 animals each. […] The third group served as control. […] The anti-tumor activity was monitored by measuring the tumors using a vernier caliper every fourth day and calculating volumes using the formula 0.4×W^2×L(W=smaller dia, L=larger dia,).

U87.MG (glioblastoma) = assay: MTT cytotoxicity assay, 72 hours; type: cell-based, human; settings: 72 h MTT
Method: as §2

B16F10 (melanoma) = assay: MTT cytotoxicity assay, 72 hours; type: cell-based, human; settings: 72 h MTT
Method: as §2

PTC (colon) = assay: MTT cytotoxicity assay, 72 hours; type: cell-based, human; settings: 72 h MTT
Method: as §2

KB (oral) = assay: MTT cytotoxicity assay, 72 hours; type: cell-based, human; settings: 72 h MTT
Method: as §2

HBL100 (breast) = assay: MTT cytotoxicity assay, 72 hours; type: cell-based, human; settings: 72 h MTT
Method: as §2

DU145 (prostate) = assay: MTT cytotoxicity assay, 72 hours; type: cell-based, human; settings: 72 h MTT
Method: as §2

PA1 (ovary) = assay: MTT cytotoxicity assay, 72 hours; type: cell-based, human; settings: 72 h MTT
Method: as §2

L132 (lung) = assay: MTT cytotoxicity assay, 72 hours; type: cell-based, human; settings: 72 h MTT
Method: as §2

MiaPaCa.2 (pancreas) = assay: MTT cytotoxicity assay, 72 hours; type: cell-based, human; settings: 72 h MTT
Method: as §2

[4] = system: PDGF dependent proliferation in human pancreatic cancer cells (MiaPaCa2); assay: PDGF dependent proliferation, percent viable cells by MTT in sera free conditions; type: cell-based; settings: Carvedilol 20 ug/ml for 16 hours, then varying PDGF for 48 hours
Method: as §1, with “fetal calf serum (FCS).” for “FCS.”, “FCS.” for “Fetal calf serum (FCS).”, “The cells were washed with PBS and incubated with varying concentrations of EGF in DMEM without FCS for a period of 48 hours.” left out

Acute toxicity in mice = type: in vivo; settings: Swiss albino mice weighing 25 grams, observed for two weeks
Method: Acute toxicity studies were performed using two preferred routes of administration: intravenous and oral administration.

Protein Kinase C (PKC) = assay: PKC activity ELISA on lysates of treated MiaPaCa2 cells; type: cell-based, human; settings: 5-100 ug/ml for 15 minutes
Method: Briefly 0.5×10^6 cells of human pancreatic cancer cells (MiaPaCa2) were plated per well in 6 well tissue culture plates in 2 ml of DMEM containing 10% Fetal calf serum. The cells were incubated overnight at 37° C. and 5% CO2. The medium was changed to DMEM without serum. […] The control cells were treated with 1% DMSO in DMEM. […] The cells were scraped with sterile cell scrapers, and spun at 1500 rpm for 5 minutes. The cell pellet was dissolved in 1 ml of ice cold sample preparation buffer (50 mM Tris-HCl, 50 mM 2-mercaptoethanol, 10 mM EGTA, 5 mM EDTA, 1 mM PMSF, 10 mM Benzamidine, pH 7.5). The cell pellets were sonicated four to five times each with time intervals of 5-10 seconds. The cells were centrifuged at 100,000×g for a period of 60 minutes at 4° C. The supernatant was aspirated from each set of experiments. The reaction mixture for quantitation of the PKC activity contained 25 mM Tris-HCl (pH7.0), 3 mM Mgc12, 0.1 mM ATP, 2 mM CaCl2, 50 ug/ml Phosphatidylserine, 0.5 mM EDTA, 1 mM EGTA, and 5 mM 2 mercaptoethanol. The lysates from the cells not treated with Carvedilol were the control experiments. The reaction mixture was preincubated for 5 minutes at 25° C. […] The optical density was read at 492 nm, and the PKC activity expressed as percent of that in control cells.

[5] = system: human pancreatic cancer cells (MiaPaCa2); assay: Cytotoxicity abrogation assay with intracellular blocking of PKC by Bisindolylmaleimide; type: cell-based
Method: (§3) Briefly, 10000 human pancreatic cancer cells (MiaPaCa2) were seeded per well in a 96-well culture plate in DMEM containing 5% FCS. All experiments were carried out in triplicate at 37° C. in CO2 incubator. The plates were incubated overnight to allow complete reattachment of the cells. Subsequently, the medium was replaced with DMEM. The cells were incubated with varying concentrations of Bisindolylmaleimide, the specific inhibitor of PKC for a period of three hours. Bisindolylmaleimide was dissolved in 1% DMSO The control cells were treated with 1% DMSO. The cells were washed with PBS, and the medium was changed to fresh DMEM.

[6] = system: human pancreatic cancer cells (MiaPaCa2); assay: Cytotoxicity abrogation assay with intracellular blocking of PI3 kinase by Wortmannin; type: cell-based
Method: as §3, with “of Wortmannin,the” for “of Bisindolylmaleimide, the”, “of PI3 kinase” for “of PKC”, “hours. Wortmannin” for “hours. Bisindolylmaleimide”, “in 0.5% DMSO.” for “in 1% DMSO”, “with 0.5%” for “with 1%”

MOLT4 (leukemia) = assay: MTT cytotoxicity assay, 72 hours; type: cell-based, human; settings: MOLT-4 (Leukemia), 72 h MTT, Table 2
Method: as §2

β-receptor = settings: preclinical studies; cited from earlier work

COc1ccccc1OCCNCC(O)COc1cccc2[nH]c3ccccc3c12 (racemic) [Carvedilol, (±)-1-(carbazol-4-yloxy)-3-[(2-(o-methoxyphenoxy)ethyl]amino]-2-propanol]
effect on COX2 activity (FIG. 5) (Cyclooxygenase 2 enzyme; MiaPaCa2, 10 ug/ml and 20 ug/ml for 4 hours, secreted and intracellular PGE2): inhibits the COX2 activity | effect on COX 2 activity after blocking of PKC (Cyclooxygenase 2 enzyme; MiaPaCa2 preincubated with Bisindolemaleimide (1 uM) for 4 hours): abrogates the effect of Carvedilol on COX 2 activity | effect on EGF dependent proliferation (FIG. 2) [1]: inhibits the EGF dependent proliferation in pancreatic cancer cells in a dose dependent manner | cytotoxicity at a fixed concentration (FIG. 1) ([2]; 20 μg/ml, all of the above-mentioned tumor cell lines, except oral): high cytotoxicity effect | ED50 values ([2]; Colon, Ovary, melanoma, Leukemia, Glioblastoma, Prostate, oral and Lung tumor cell lines): less than 20 μg/ml | tumor inhibition based on tumor volumes compared with untreated controls ([3]; 300 ug/day): 37.3% | tumor inhibition based on tumor volumes compared with untreated controls ([3]; 600 ug/day): 59.1% | pattern of tumor growth (FIG. 6) ([3]; both doses (300 and 600 ug/day oral)): delayed tumor growth and tumor regression | ED50 (U87.MG (glioblastoma); U87.MG (glioblastoma)): 14.5 ± 2.2 µg/mL (≈ 35.7 µM) | ED50 (U87.MG (glioblastoma); U87MG (Glioblastoma), Table 2): 14.5 ± 2.2 µg/mL (≈ 35.7 µM) | ED50 (B16F10 (melanoma); B16.F10 (Melanoma), Table 2): 10.5 ± 1.7 µg/mL (≈ 25.8 µM) | ED50 (B16F10 (melanoma); B16F10 (melanoma)): 10.5 ± 1.7 µg/mL (≈ 25.8 µM) | ED50 (PTC (colon); PTC (Colon), Table 2): 7.0 ± 0.7 µg/mL (≈ 17.2 µM) | ED50 (PTC (colon); PTC (colon)): 7.0 ± 0.7 µg/mL (≈ 17.2 µM) | ED50 (KB (oral); KB (Oral), Table 2): 12.0 ± 1.8 µg/mL (≈ 29.5 µM) | ED50 (KB (oral); KB (oral)): 12.0 ± 1.8 µg/mL (≈ 29.5 µM) | ED50 (HBL100 (breast); HBL100 (Breast), Table 2): 29.0 ± 4.2 µg/mL (≈ 71.3 µM) | ED50 (HBL100 (breast); HBL100 (breast)): 29.0 ± 4.2 µg/mL (≈ 71.3 µM) | ED50 (DU145 (prostate)): 9.0 ± 0.9 µg/mL (≈ 22.1 µM) | ED50 (PA1 (ovary); PA1 (ovary)): 11.5 ± 2.1 µg/mL (≈ 28.3 µM) | ED50 (PA1 (ovary); PA-1 (Ovary), Table 2): 11.5 ± 2.1 µg/mL (≈ 28.3 µM) | ED50 (L132 (lung); L132 (Lung), Table 2): 16.0 ± 3.1 µg/mL (≈ 39.4 µM) | ED50 (L132 (lung); L132 (lung)): 16.0 ± 3.1 µg/mL (≈ 39.4 µM) | ED50 (MiaPaCa.2 (pancreas); MiaPaCa.2 (Pancreas), Table 2): 33.0 ± 4.6 µg/mL (≈ 81.2 µM) | ED50 (MiaPaCa.2 (pancreas); MiaPaCa.2 (pancreas)): 33.0 ± 4.6 µg/mL (≈ 81.2 µM) | effect on PDGF dependent proliferation (FIG. 3) [4]: inhibits the PDGF dependent proliferation in human pancreatic cancer cells in a dose dependent manner | safe dose (Acute toxicity in mice; i.v.): 0.15 mg | safe dose (Acute toxicity in mice; oral): 3 mg | effect on PKC activity (FIG. 4) (Protein Kinase C (PKC)): inhibits the PKC activity in a dose dependent manner | cytotoxicity at 20 µg/mL ([5]; MIA PaCa-2, 48 h, read-out: % Cytotoxicity of Carvedilol (20 ug/ml), MiaPaCa2, 48 hours, Bisindolemaleimide Nil): 50% | cytotoxicity at 20 µg/mL ([5]; MIA PaCa-2, read-out: % Cytotoxicity of Carvedilol (20 ug/ml), MiaPaCa2, 48 hours, preincubated with Bisindolemaleimide 1.0 uM): 22% | cytotoxicity at 20 µg/mL ([5]; MIA PaCa-2, read-out: % Cytotoxicity of Carvedilol (20 ug/ml), MiaPaCa2, 48 hours, preincubated with Bisindolemaleimide 2.5 uM): 20% | cytotoxicity at 20 µg/mL ([5]; MIA PaCa-2, read-out: % Cytotoxicity of Carvedilol (20 ug/ml), MiaPaCa2, 48 hours, preincubated with Bisindolemaleimide 5.0 uM): 20% | cytotoxicity at 20 µg/mL ([6]; MIA PaCa-2, 48 h, read-out: % Cytotoxicity of Carvedilol (20 ug/ml), MiaPaCa2, 48 hours, Wortamannin Nil): 50% | cytotoxicity at 20 µg/mL ([6]; MIA PaCa-2, read-out: % Cytotoxicity of Carvedilol (20 ug/ml), MiaPaCa2, 48 hours, preincubated with Wortamannin 0.5 nM): 22% | cytotoxicity at 20 µg/mL ([6]; MIA PaCa-2, read-out: % Cytotoxicity of Carvedilol (20 ug/ml), MiaPaCa2, 48 hours, preincubated with Wortamannin 1.0 nM): 20% | cytotoxicity at 20 µg/mL ([6]; MIA PaCa-2, read-out: % Cytotoxicity of Carvedilol (20 ug/ml), MiaPaCa2, 48 hours, preincubated with Wortamannin 1.5 nM): 19% | cytotoxicity at 20 µg/mL ([6]; MIA PaCa-2, read-out: % Cytotoxicity of Carvedilol (20 ug/ml), MiaPaCa2, 48 hours, preincubated with Wortamannin 2.0 nM): 18%

COc1ccccc1OCCNC[C@@H](O)COc1cccc2[nH]c3ccccc3c12 (single isomer, unassigned) [R(+) isomer]
ED50 (U87.MG (glioblastoma); U87MG (Glioblastoma), Table 2): 14.5 ± 2.9 µg/mL (≈ 35.7 µM) | ED50 (B16F10 (melanoma); B16.F10 (Melanoma), Table 2): 10.5 ± 1.6 µg/mL (≈ 25.8 µM) | ED50 (PTC (colon); PTC (Colon), Table 2): 7.0 ± 0.4 µg/mL (≈ 17.2 µM) | ED50 (KB (oral); KB (Oral), Table 2): 12.0 ± 2.6 µg/mL (≈ 29.5 µM) | ED50 (HBL100 (breast); HBL100 (Breast), Table 2): 32.8 ± 3.7 µg/mL (≈ 80.7 µM) | ED50 (MOLT4 (leukemia)): 12.0 ± 1.6 µg/mL (≈ 29.5 µM) | ED50 (PA1 (ovary); PA-1 (Ovary), Table 2): 10.0 ± 1.5 µg/mL (≈ 24.6 µM) | ED50 (L132 (lung); L132 (Lung), Table 2): 16.0 ± 3.1 µg/mL (≈ 39.4 µM) | ED50 (MiaPaCa.2 (pancreas); MiaPaCa.2 (Pancreas), Table 2): 27.0 ± 2.7 µg/mL (≈ 66.4 µM)

COc1ccccc1OCCNC[C@H](O)COc1cccc2[nH]c3ccccc3c12 (single isomer, unassigned) [S(−) isomer]
ED50 (U87.MG (glioblastoma); U87MG (Glioblastoma), Table 2): 18.5 ± 2.1 µg/mL (≈ 45.5 µM) | ED50 (B16F10 (melanoma); B16.F10 (Melanoma), Table 2): 11.4 ± 2.1 µg/mL (≈ 28 µM) | ED50 (PTC (colon); PTC (Colon), Table 2): 7.5 ± 0.4 µg/mL (≈ 18.5 µM) | ED50 (KB (oral); KB (Oral), Table 2): 19.0 ± 3.4 µg/mL (≈ 46.7 µM) | ED50 (HBL100 (breast); HBL100 (Breast), Table 2): 33.5 ± 4.2 µg/mL (≈ 82.4 µM) | ED50 (MOLT4 (leukemia)): 17.0 ± 2.5 µg/mL (≈ 41.8 µM) | ED50 (PA1 (ovary); PA-1 (Ovary), Table 2): 13.0 ± 1.3 µg/mL (≈ 32 µM) | ED50 (L132 (lung); L132 (Lung), Table 2): 22.6 ± 3.8 µg/mL (≈ 55.6 µM) | ED50 (MiaPaCa.2 (pancreas); MiaPaCa.2 (Pancreas), Table 2): 33.0 ± 3.9 µg/mL (≈ 81.2 µM)

COc1cc(O)ccc1OCCNCC(O)COc1cccc2[nH]c3ccccc3c12 (stereo not drawn) [4′-hydroxyphenyl metabolite]
potency for β-blockade relative to carvedilol (β-receptor): approximately 13 times
